The record followed here is ChEMBL document CHEMBL2040736, “Design of potent and selective hybrid inhibitors of the mitotic kinase Nek2: structure-activity relationship, structural biology, and cellular activity” (J Med Chem, 2012).

Data set [1] addresses T1, Serine/threonine-protein kinase Nek2 (Homo sapiens, UniProt P51955).
T1 sequence (P51955 whole entry): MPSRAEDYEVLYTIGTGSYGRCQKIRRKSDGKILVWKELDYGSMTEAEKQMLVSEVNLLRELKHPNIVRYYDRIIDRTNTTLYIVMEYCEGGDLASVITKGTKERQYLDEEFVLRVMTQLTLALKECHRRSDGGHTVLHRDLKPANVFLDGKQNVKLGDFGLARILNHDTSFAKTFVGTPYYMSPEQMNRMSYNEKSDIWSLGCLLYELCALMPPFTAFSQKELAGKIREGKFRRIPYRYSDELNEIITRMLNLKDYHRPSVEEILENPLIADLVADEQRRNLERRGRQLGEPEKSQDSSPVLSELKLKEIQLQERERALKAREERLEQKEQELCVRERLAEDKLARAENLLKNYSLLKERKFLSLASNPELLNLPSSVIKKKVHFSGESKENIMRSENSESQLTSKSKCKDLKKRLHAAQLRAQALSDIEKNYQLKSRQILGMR

Data set [2] deals with Serine/threonine-protein kinase PLK1 (Homo sapiens, UniProt P53350). Briefly: Inhibition of Plk1 using 5-FAMRRRAGALMDASFEEQ- CONH2 as substrate after 75 mins by caliper method.
Data set [3] is described as follows: Drug metabolism in mouse liver microsomes after 30 mins. Type of data set: ADME, Microsome. To be noted: read-out: Drug metabolism. On the technique in general: Microsomes from liver hold many membrane-bound enzymes, among them those of drug oxidation.
Data set [4] addresses T2, Dual specificity protein kinase TTK (Homo sapiens, UniProt P33981).
T2 sequence (P33981 whole entry): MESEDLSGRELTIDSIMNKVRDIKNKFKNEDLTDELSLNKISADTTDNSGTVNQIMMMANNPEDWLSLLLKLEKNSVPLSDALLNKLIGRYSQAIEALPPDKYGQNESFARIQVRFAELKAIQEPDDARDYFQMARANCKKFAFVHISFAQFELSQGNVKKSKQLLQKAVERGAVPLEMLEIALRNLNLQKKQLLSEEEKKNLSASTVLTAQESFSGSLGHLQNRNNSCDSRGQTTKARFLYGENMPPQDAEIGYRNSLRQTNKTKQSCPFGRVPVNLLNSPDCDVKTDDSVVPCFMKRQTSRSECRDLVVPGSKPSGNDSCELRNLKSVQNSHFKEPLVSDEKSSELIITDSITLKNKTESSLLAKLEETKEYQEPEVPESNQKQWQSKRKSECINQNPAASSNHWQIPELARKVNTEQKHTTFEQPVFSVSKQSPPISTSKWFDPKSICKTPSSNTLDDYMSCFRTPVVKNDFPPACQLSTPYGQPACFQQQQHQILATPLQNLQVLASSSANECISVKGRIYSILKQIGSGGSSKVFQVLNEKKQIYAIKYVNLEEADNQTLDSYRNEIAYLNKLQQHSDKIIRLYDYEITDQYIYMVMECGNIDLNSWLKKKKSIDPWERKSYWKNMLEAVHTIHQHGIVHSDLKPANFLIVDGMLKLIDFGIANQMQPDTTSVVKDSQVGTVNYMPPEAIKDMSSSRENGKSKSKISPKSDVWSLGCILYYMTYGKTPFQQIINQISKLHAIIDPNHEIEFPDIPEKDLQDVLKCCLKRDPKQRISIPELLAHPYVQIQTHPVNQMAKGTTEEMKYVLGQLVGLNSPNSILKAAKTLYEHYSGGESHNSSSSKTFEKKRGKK
Put plainly: Inhibition of MPS1 by caliper method.

The target in another data set is T3, Aurora kinase A (Homo sapiens, UniProt O14965).
T3 sequence (O14965 whole entry): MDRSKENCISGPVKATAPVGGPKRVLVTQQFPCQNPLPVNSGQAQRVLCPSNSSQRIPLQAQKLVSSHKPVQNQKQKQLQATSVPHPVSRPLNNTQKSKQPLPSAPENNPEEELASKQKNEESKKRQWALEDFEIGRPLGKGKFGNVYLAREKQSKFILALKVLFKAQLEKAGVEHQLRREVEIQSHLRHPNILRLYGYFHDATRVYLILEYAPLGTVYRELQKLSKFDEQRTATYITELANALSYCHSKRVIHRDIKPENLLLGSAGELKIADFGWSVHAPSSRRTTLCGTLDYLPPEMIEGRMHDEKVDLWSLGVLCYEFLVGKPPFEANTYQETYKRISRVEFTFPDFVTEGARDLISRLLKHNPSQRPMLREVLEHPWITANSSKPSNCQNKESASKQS
Briefly: Inhibition of Aurora A kinase by caliper method.

For data set [5], the target named is Cyclin-dependent kinase 2 (Homo sapiens, UniProt P24941). Put plainly: Inhibition of CDK2 by caliper method.
A further data set deals with U2OS. Briefly: Growth inhibition of human U2OS cells after 92 hrs by CellTiter-Blue assay. Type of data set: functional. (The colour change of resazurin is a common sign of viable cells or microbes.)
The next data set has as its system MDA-MB-231. Briefly: Growth inhibition of human MDA-MB-231 cells after 92 hrs by CellTiter-Blue assay. The settings on record: MDA-MB-231, 92 h. The class given is functional.
Another data set concerns HeLa. Briefly: Growth inhibition of human HeLa cells after 92 hrs by CellTiter-Blue assay. The class given is functional.
A further data set concerns MCF7. Briefly: Growth inhibition of human MCF7 cells after 92 hrs by CellTiter-Blue assay. To be noted: MCF7, 92 h. The class given is functional.
Data set [6] in a line: Permeability of the compound by PAMPA assay. Type of data set: ADME. Background: In PAMPA a lipid-coated filter parts donor from acceptor wells.
Data set [7] concerns the target T1, Serine/threonine-protein kinase Nek2. To be noted: u2os.
Description: Inhibition of Nek2-mediated C-Nap1 phosphorylation in human U2OS cells after 3 hrs by immunofluorescence microscopy

pIC50: −log10 of the molar value.

Serine/threonine-protein kinase PLK1, sequence (P53350 whole entry): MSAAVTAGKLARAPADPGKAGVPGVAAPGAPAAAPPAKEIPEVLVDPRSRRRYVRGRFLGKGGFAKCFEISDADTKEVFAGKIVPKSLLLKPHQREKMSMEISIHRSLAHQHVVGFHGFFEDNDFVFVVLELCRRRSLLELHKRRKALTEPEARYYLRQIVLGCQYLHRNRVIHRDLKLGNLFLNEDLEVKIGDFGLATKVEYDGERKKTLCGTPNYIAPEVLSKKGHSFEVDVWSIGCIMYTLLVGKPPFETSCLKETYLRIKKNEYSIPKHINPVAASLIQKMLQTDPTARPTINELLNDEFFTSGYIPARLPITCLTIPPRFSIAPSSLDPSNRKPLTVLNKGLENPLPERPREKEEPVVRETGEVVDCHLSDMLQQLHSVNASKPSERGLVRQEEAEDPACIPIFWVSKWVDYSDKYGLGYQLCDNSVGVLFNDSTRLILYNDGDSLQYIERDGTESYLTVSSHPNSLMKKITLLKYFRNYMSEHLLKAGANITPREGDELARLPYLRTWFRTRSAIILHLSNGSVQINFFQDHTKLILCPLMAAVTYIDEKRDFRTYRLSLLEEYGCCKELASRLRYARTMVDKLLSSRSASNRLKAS

For the compound `CC(Oc1cc(-c2cc(-c3cccs3)cnc2N)ccc1C(N)=O)c1ccccc1C(F)(F)F` (racemic), in data set [1], the pIC50 is 5.05.
On to `CC(Oc1cc(-c2cc(-c3ccc(CN4CCOCC4)s3)cnc2N)ccc1C(N)=O)c1ccccc1C(F)(F)F` (racemic), for which the pIC50 in data set [1] is 6.50.
Still for that read-out and setting: with `COc1cc(-c2cc(-c3cccs3)cnc2N)ccc1C(N)=O` the figure was 4.98.
Still for that read-out and setting: for `COc1cc(-c2cc(-c3cc(CN(C)C)cs3)cnc2N)ccc1C(N)=O` the value was 5.65.
In the case of `CC(Oc1cc(-c2nc(-c3cc(CN(C)C)cs3)cnc2N)ccc1C(N)=O)c1ccccc1C(F)(F)F` (racemic), the negative-log IC50 (pIC50) in data set [1] is 5.58.
Same read-out and setting: for `Cc1cc(-c2cnc(N)c(-c3ccc(C(N)=O)c(OC(C)c4ccccc4C(F)(F)F)c3)c2)sc1CN(C)C` (racemic) the value was 7.33.
Take `CC(Oc1cc(-c2nc(-c3cccc(CN(C)C)c3)cnc2N)ccc1C(N)=O)c1ccccc1C(F)(F)F` (racemic): the pIC50 in [2] was 4.92; in data set [1], 5.61.
The like results for `CC(Oc1cc(-c2cc(-c3cccc(CN(C)C)c3)cnc2N)ccc1C(N)=O)c1ccccc1C(F)(F)F` (racemic) were, in that order, 5.48 and 6.68.
The like results for `CC(Oc1cc(-c2cc(-c3ccc(CN(C)C)s3)cnc2N)ccc1C(N)=O)c1ccccc1C(F)(F)F` (racemic) were, in that order, 6.30 and 7.33.
`CC(Oc1cc(-c2nc(-c3ccc(CN(C)C)cc3)cnc2N)ccc1C(N)=O)c1ccccc1C(F)(F)F` (racemic): the pIC50 is 5.41 in data set [2] and 6.10 in [1].
The compound `CC(Oc1cc(-c2cc(-c3cc(CN(C)C)cs3)cnc2N)ccc1C(N)=O)c1ccccc1C(F)(F)F` (racemic) gave a pIC50 in data set [2] of 5.88. Further, the metabolised at 0.5 h in data set [3] stood at 87%.
`C[C@@H](Oc1cc(-c2cc(-c3cc(CN(C)C)cs3)cnc2N)ccc1C(N)=O)c1ccccc1C(F)(F)F`: the pIC50 in data set [2] was 6.09; in [4], 5.32; at Aurora kinase A, 5.06; in data set [5], 4.58. For the same compound, the GI50 in the data set on U2OS turned out to be 0.48 µM; in the data set with MDA-MB-231, 0.95 µM; in the data set with HeLa, 0.14 µM; in the data set with MCF7, 0.22 µM.
On to `CC(/C=C\C(F)(F)F)Oc1cc(-c2cc(-c3cc(CN(C)C)cs3)cnc2N)ccc1C(N)=O` (racemic), for which the results for the pIC50 in [2] and in data set [1] were 5.08 and 7.14, respectively. Further, the permeability in data set [6] was determined as 27.6 ×10⁻⁶ cm/s. Also, the metabolised at 0.5 h in data set [3] was determined as 95%.
For the compound `CC(Oc1cc(-c2cc(-c3ccc(CN4CCCCC4)s3)cnc2N)ccc1C(N)=O)c1ccccc1C(F)(F)F` (racemic), in data set [1], the pIC50 is 7.03.
In [1], `CC(Oc1cc(-c2nc(-c3ccc(CN(C)C)s3)cnc2N)ccc1C(N)=O)c1ccccc1C(F)(F)F` (racemic) showed a negative-log IC50 (pIC50) of 5.57.
On the same count and under the same terms, for `Cc1cc(CN(C)C)sc1-c1cnc(N)c(-c2ccc(C(N)=O)c(OC(C)c3ccccc3C(F)(F)F)c2)c1` (racemic) the value was 7.24.
Turning to `C[C@@H](/C=C\C(F)(F)F)Oc1cc(-c2cc(-c3cc(CN(C)C)cs3)cnc2N)ccc1C(N)=O`, the pIC50 in [2] is under 4.30; in data set [4] it was 5.15; against Aurora kinase A, 5.63; in data set [5], 6.28; in data set [1] it was 5.74. In addition, the GI50 came to 2.17 µM in the data set on U2OS, 7.25 µM in the data set with MDA-MB-231, 0.44 µM with HeLa and 5.42 µM in the data set with MCF7. For the same compound, the IC50 entry in [7] was “Not Active”.
In the case of `CC(Oc1cc(-c2cc(-c3ccc(CN(C)C)cc3)cnc2N)ccc1C(N)=O)c1ccccc1C(F)(F)F` (racemic), the pIC50 in [2] was 5.81; in data set [4], 5.51; on Aurora kinase A it was 5.10; in data set [5], 5.56; in data set [1], 6.92.
On to `CC(Oc1cc(-n2cnc3cc(OC4CCN(C)CC4)ccc32)ccc1C(N)=O)c1ccccc1C(F)(F)F` (racemic), for which the GI50 with U2OS came to 2.96 µM; with MDA-MB-231, 4.95 µM; in the data set on HeLa, 1.2 µM; with MCF7, 2.03 µM. Also, in data set [7], the IC50 entry is “Not Active”.

A word on the pIC50: it is −log10 of the IC50, conventionally taken in molar units. Lower therefore signals a large IC50. For orientation: GI50 means the concentration that inhibits growth by half.
